Laboratory results taken from paper doi:10.1101/116368v1 (biorxiv, 2017).

Molecular target: T1, STARD1 (StAR), STARD1^S195E, residues 66-285 (Homo sapiens, UniProt P49675, S195E)
T1 sequence (P49675 66-285 S195E): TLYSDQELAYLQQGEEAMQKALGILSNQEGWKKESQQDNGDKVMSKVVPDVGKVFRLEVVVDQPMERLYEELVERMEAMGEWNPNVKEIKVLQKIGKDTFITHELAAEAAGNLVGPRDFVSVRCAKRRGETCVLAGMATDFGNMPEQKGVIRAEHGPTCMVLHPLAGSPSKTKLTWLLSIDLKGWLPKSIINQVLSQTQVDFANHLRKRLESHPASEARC
Experiment: NBD fluorescence titration, quadratic fit
Assay type: binding

In the case of `CC(Nc1ccc([N+](=O)[O-])c2nonc12)[C@H]1CC[C@H]2[C@@H]3CC=C4C[C@@H](O)CC[C@]4(C)[C@H]3CC[C@]12C` (some centres unmarked) [20NP, 20-((NBDamino)-pregn-5-en-3-ol], the Kd is reported as 26 ± 8 nM.

With `CC(C)CCC[C@@H](C)[C@H]1CC[C@H]2[C@@H]3CCC4CC(Nc5ccc([N+](=O)[O-])c6nonc56)CC[C@]4(C)[C@H]3CC[C@]12C` (some centres unmarked) [3NC, 3-(NBDamino)-cholestane] the Kd was 302 ± 29 nM.
